Laboratory results as given in patent US12528801B2 (Givaudan SA, priority 2019, dated 2026).

Target: T1, hTRPM8 (Homo sapiens, UniProt Q7Z2W7)
T1 construct: expressed in transfected cells
Test: Assay on TRPM8 modulators: calcium imaging (Fluo-4, Flexstation) in HEK293 cell line stably expressing hTRPM8
Type: cell-based
Settings: HEK293 cells stably expressing hTRPM8; calcium influx, Fluo-4, Flexstation 3; sigmoidal dose-response fit
Method in brief: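 HEK293 cells stably expressing hTRPM8 were loaded with Fluo-4 AM plus probenecid and kept in HEPES buffer, pH 7.4. Calcium influx to serially diluted compounds was recorded for 120 s. Maximal activation was referenced to solvent control and 31.6 μM menthol, with EC values from sigmoidal dose-response fits.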

T1 sequence (Q7Z2W7 whole entry): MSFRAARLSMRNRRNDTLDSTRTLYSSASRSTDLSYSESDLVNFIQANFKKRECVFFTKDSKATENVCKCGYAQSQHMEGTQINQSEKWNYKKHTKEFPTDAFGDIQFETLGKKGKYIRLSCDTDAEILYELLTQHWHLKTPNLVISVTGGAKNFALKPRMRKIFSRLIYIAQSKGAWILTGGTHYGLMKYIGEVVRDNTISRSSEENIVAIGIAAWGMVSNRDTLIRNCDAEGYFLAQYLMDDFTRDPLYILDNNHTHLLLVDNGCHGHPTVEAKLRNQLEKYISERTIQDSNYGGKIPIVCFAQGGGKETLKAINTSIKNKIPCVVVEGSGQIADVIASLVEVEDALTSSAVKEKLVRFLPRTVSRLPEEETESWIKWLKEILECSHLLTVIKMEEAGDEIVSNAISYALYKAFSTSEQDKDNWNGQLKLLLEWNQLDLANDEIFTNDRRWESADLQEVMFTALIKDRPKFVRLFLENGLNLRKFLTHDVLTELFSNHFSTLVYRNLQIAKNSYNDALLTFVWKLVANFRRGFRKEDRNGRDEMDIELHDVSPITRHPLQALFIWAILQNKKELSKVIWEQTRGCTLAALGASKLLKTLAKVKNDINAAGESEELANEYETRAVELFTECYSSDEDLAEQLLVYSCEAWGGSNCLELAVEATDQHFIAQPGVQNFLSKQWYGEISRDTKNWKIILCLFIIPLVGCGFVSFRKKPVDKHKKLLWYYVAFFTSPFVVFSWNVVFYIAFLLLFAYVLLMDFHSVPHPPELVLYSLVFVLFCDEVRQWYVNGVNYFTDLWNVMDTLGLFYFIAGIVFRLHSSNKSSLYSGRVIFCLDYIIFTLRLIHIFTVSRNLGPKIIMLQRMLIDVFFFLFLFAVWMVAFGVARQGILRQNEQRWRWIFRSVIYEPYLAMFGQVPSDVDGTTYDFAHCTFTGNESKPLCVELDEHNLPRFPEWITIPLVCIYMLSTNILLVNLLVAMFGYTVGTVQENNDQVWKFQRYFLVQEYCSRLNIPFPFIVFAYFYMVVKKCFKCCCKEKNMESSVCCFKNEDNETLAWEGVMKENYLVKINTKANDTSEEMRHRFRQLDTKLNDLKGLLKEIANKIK

Row | Structure (SMILES) | EC50
1 | Cc1ccc(-c2cnc(C3CCCCN3C(=O)C(C)N)[nH]2)cc1 (stereo not drawn) [Compound 147, 2-amino-1-(2-(5-(p-toly)-1H-imidazol-2-yl)piperidin-1-yl)propan-1-one] | 1000 to 35000 nM
2 | CCOC(C(=O)N1CCCCC1c1nc(-c2ccccc2)c[nH]1)C1CCCC1 (stereo not drawn) [Compound 149, 2-cyclopentyl-2-ethoxy-1-(2-(4-phenyl-1H-imidazol-2-yl)piperidin-1-yl)ethan-1-one] | 1000 to 35000 nM
3 | O=C(CC1CC1)N1CCCCC1c1nc(-c2ccccc2)c[nH]1 (stereo not drawn) [Compound 150, 2-cyclopropyl-1-(2-(4-phenyl-1H-imidazol-2-yl)piperidin-1-yl)ethan-1-one] | 1000 to 35000 nM
4 | CC(C(=O)N1CCCCC1c1nc(-c2ccccc2)c[nH]1)C1CC1 (stereo not drawn) [Compound 151, 2-cyclopropyl-1-(2-(4-phenyl-1H-imidazol-2-yl)piperidin-1-yl)propan-1-one] | 50 to 300 nM
5 | COC(C(=O)N1CCCCC1c1nc(-c2ccccc2)c[nH]1)C1CC1 (stereo not drawn) [Compound 152, 2-cyclopropyl-2-methoxy-1-(2-(4-phenyl-1H-imidazol-2-yl)piperidin-1-yl)ethan-1-one] | 300 to 1000 nM
6 | CCOC(C)C(=O)N1CCCCC1c1ncc(-c2cccc(F)c2)[nH]1 (stereo not drawn) [Compound 153, 2-ethoxy-1-(2-(5-(3-fluorophenyl)-1H-imidazol-2-yl)piperidin-1-yl)propan-1-one] | 1000 to 35000 nM
7 | CC=C(CC)C(=O)N1CCCCC1c1nc(-c2ccccc2)c[nH]1 (stereo not drawn) [Compound 154, 2-ethyl-1-(2-(4-phenyl-1H-imidazol-2-yl)piperidin-1-yl)but-2-en-1-one] | 50 to 300 nM
8 | CCC(CC)C(=O)N1CCCCC1c1nc(-c2ccccc2)c[nH]1 (stereo not drawn) [Compound 155, 2-ethyl-1-(2-(4-phenyl-1H-imidazol-2-yl)piperidin-1-yl)butan-1-one] | 50 to 300 nM
9 | Cc1ccc(-c2cnc(C3CCCCN3C(=O)C(C)S)[nH]2)cc1 (stereo not drawn) [Compound 157, 2-mercapto-1-(2-(5-(p-tolyl)-1H-imidazol-2-yl)piperidin-1-yl)propan-1-one] | 50 to 300 nM
10 | CCC(OC)C(=O)N1CCCCC1c1nc(-c2ccccc2)c[nH]1 (stereo not drawn) [Compound 158, 2-methoxy-1-(2-(4-phenyl-1H-imidazol-2-yl)piperidin-1-yl)butan-1-one] | 300 to 1000 nM
11 | COC(C)C(=O)N1CCCCC1c1nc(-c2ccccc2)c[nH]1 (stereo not drawn) [Compound 159, 2-methoxy-1-(2-(4-phenyl-1H-imidazol-2-yl)piperidin-1-yl)propan-1-one] | 1000 to 35000 nM
12 | COC(C)C(=O)N1CCCCC1c1ncc(-c2ccc(C)cc2)[nH]1 (stereo not drawn) [Compound 160, 2-methoxy-1-(2-(5-(p-tolyl)-1H-imidazol-2-yl)piperidin-1-yl)propan-1-one] | 50 to 300 nM
13 | CCC(C)C(=O)N1CCCCC1c1nc(-c2ccccc2)c[nH]1 (stereo not drawn) [Compound 161, 2-methyl-1-(2-(4-phenyl-1H-imidazol-2-yl)piperidin-1-yl)butan-1-one] | 50 to 300 nM
14 | CC(C)C(=O)N1CCCCC1c1nc(-c2ccccc2)c[nH]1 (stereo not drawn) [Compound 162, 2-methyl-1-(2-(4-phenyl-1H-imidazol-2-yl)piperidin-1-yl)propan-1-one] | 300 to 1000 nM
15 | CC(=O)C(C)C(=O)N1CCCCC1c1ncc(-c2ccc(C)cc2)[nH]1 (stereo not drawn) [Compound 167, 2-methyl-1-(2-(5-(p-toly)-1H-imidazol-2-yl)piperidin-1-yl)butane-1,3-dione] | 50 to 300 nM
16 | CSCC(C)C(=O)N1CCCCC1c1nc(-c2ccccc2)c[nH]1 (stereo not drawn) [Compound 172] | 300 to 1000 nM
17 | CSC(C)C(=O)N1CCCCC1c1nc(-c2cccc(C#N)c2)c[nH]1 (stereo not drawn) [Compound 174, 3-(2-(1-(2-(methylthio)propanoyl)piperidin-2-yl)-1H-imidazol-4-yl)benzonitrile] | 50 to 300 nM
18 | CC(C(=O)N1CCCCC1c1nc(-c2ccccc2)c[nH]1)C(F)(F)F (stereo not drawn) [Compound 175, 3,3,3-trifluoro-2-methyl-1-(2-(4-phenyl-1H-imidazol-2-yl)piperidin-1-yl)propan-1-one] | 50 to 300 nM
19 | O=C(CC(F)(F)C(F)(F)F)N1CCCCC1c1nc(-c2ccccc2)c[nH]1 (stereo not drawn) [Compound 176, 3,3,4,4,4-pentafluoro-1-(2-(4-phenyl-1H-imidazol-2-yl)piperidin-1-yl)butan-1-one] | 1000 to 35000 nM
20 | CC(F)(F)CC(=O)N1CCCCC1c1nc(-c2ccccc2)c[nH]1 (stereo not drawn) [Compound 177, 3,3-difluoro-1-(2-(4-phenyl-1H-imidazol-2-yl)piperidin-1-yl)butan-1-one] | 1000 to 35000 nM
21 | CC(C)=CC(=O)N1CCCCC1c1nc(-c2ccccc2)c[nH]1 (stereo not drawn) [Compound 179, 3-methyl-1-(2-(4-phenyl-1H-imidazol-2-yl)piperidin-1-yl)but-2-en-1-one] | 1000 to 35000 nM
22 | CC(C)CC(=O)N1CCCCC1c1nc(-c2ccccc2)c[nH]1 (stereo not drawn) [Compound 180, 3-methyl-1-(2-(4-phenyl-1H-imidazol-2-yl)piperidin-1-yl)butan-1-one] | 1000 to 35000 nM

The remaining lines, values ahead:

Row | EC50 | Structure (SMILES)
23 | 50 to 300 nM | CC(C)C(C)C(=O)N1CCCCC1c1nc(-c2ccccc2)c[nH]1 (stereo not drawn) [Compound 145, 2,3-dimethyl-1-(2-(4-phenyl-1H-imidazol-2-yl)piperidin-1-yl)butan-1-one]
24 | < 50 nM | CSC(C)C(=O)N1CCCCC1c1nc(-c2cc(F)c(C#N)cc2F)c[nH]1 (stereo not drawn) [Compound 146, 2,5-difluoro-4-(2-(1-(2-(methylthio)propanoyl)piperidin-2-yl)-1H-imidazol-4-yl)benzonitrile]
25 | 50 to 300 nM | CC(C(=O)N1CCCCC1c1nc(-c2ccccc2)c[nH]1)C1CCC1 (stereo not drawn) [Compound 148, 2-cyclobutyl-1-(2-(4-phenyl-1H-imidazol-2-yl)piperidin-1-yl)propan-1-one]
26 | < 50 nM | CSC(C)C(=O)N1CCCCC1c1ncc(-c2ccc(C#N)c(F)c2)[nH]1 (stereo not drawn) [Compound 156, 2-fluoro-4-(2-(1-(2-(methylthio)propanoyl)piperidin-2-yl)-1H-imidazol-5-yl)benzonitrile]
27 | < 50 nM | CC[C@H](C)C(=O)N1CCCC[C@@H]1c1ncc(-c2ccc(C)cc2)[nH]1 [Compound 165, (S)-2-methyl-1-((R)-2-(5-(p-tolyl)-1H-imidazol-2-yl)piperidin-1-yl)butan-1-one]
28 | < 50 nM | CCCC(C)C(=O)N1CCCCC1c1ncc(-c2ccc(C)cc2)[nH]1 (stereo not drawn) [Compound 168, 2-methyl-1-(2-(5-(p-tolyl)-1H-imidazol-2-yl)piperidin-1-yl)pentan-1-one]
29 | < 50 nM | C=C(C)C(=O)N1CCCCC1c1ncc(-c2ccc(C)cc2)[nH]1 (stereo not drawn) [Compound 169, 2-methyl-1-(2-(5-(p-tolyl)-1H-imidazol-2-yl)piperidin-1-yl)prop-2-en-1-one]
30 | < 50 nM | Cc1ccc(-c2cnc(C3CCCCN3C(=O)C(C)C)[nH]2)cc1 (stereo not drawn) [Compound 170, 2-methyl-1-(2-(5-(p-tolyl)-1H-imidazol-2-yl)piperidin-1-yl)propan-1-one]
31 | < 50 nM | CSC(C)(C)C(=O)N1CCCCC1c1ncc(-c2ccc(C)cc2)[nH]1 (stereo not drawn) [Compound 171, 2-methyl-2-(methylthio)-1-(2-(5-(p-tolyl)-1H-imidazol-2-yl)piperidin-1-yl)propan-1-one]
32 | < 50 nM | C=C(CC)C(=O)N1CCCCC1c1ncc(-c2ccc(C)cc2)[nH]1 (stereo not drawn) [Compound 173, 2-methylene-1-(2-(5-(p-toly)-1H-imidazol-2-yl)piperidin-1-yl)butan-1-one]
33 | < 50 nM | CSC(C)C(=O)N1CCCCC1c1ncc(-c2ccc(C#N)cc2F)[nH]1 (stereo not drawn) [Compound 178, 3-fluoro-4-(2-(1-(2-(methylthio)propanoyl)piperidin-2-yl)-1H-imidazol-5-yl)benzonitrile]
